Results on 1 molecule are retold here after patent publication US20150080475A1, “Memantine Protects Inflammation-Related Degeneration of Dopamine Neurons Through Inhibition of Over-Activated Microglia and Release of Neurotrophic Factors From Astroglia” (priority 2009, published 2015).

What all share (format): cell-based
The test system of assay [1] is DA neurons. Nature of the assay: [3H] DA uptake, LPS-induced neurotoxicity in rat mesencephalic neuron-glia cultures. As to the method: Rat and mouse ventral mesencephalic neuron-glia cultures were prepared using a described protocol (Gao H M, Hong J S, Zhang W Q, Liu B (2002) Distinct Role for Microglia in Rotenone-Induced Degeneration of Dopaminergic Neurons. J Neurosci 22(3):782-790). Briefly, midbrain tissues were dissected from day 14 Fisher 344 rat embryos or day 14 mouse embryos (PHOX^+/+ or PHOX^−/−). Cells were dissociated via gentle mechanical trituration in minimum essential medium (MEM) and immediately seeded (5×10^5/well) in poly D-lysine (20 μg/mL) precoated 24-well plates. Cells were seeded in maintenance media and treated with the treatment media described previously (Gao H M, Hong J S, Zhang W Q, Liu B (2002) Distinct Role for Microglia in Rotenone-Induced Degeneration of Dopaminergic Neurons. J Neurosci 22(3):782-790). Three days after seeding, the cells were replenished with 500 μL of fresh maintenance media. Cultures were exposed 7 days after seeding. At the time of treatment, the composition of the cultures was approximately 48% astrocytes, 11% microglia, 40% neurons, and 1 to 1.5% TH-immunoreactive (ir) neurons.
(§1) Cells were incubated in Krebs-Ringer buffer (16 mM NaH2PO4, 1.2 mM MgSO4, 1.3 mM EDTA, […], for 21 min at 37° C. with 1 μM [^3H] DA. Nonspecific uptake was blocked for DA with 10 μM mazindole. After incubation, cells were washed three times with 1 mL/well of ice-cold Krebs-Ringer buffer. Cells were then lysed with 0.5 mL/well of 1 N NaOH and mixed with 15 mL of scintillation fluid. Radioactivity was measured on a scintillation counter, where specific [^3H] DA uptake was calculated by subtracting the mazindole.
Rat mesencephalic neuron-glia cultures were pretreated for 30 min with vehicle or 1, 3, 10 μM MMT before adding LPS (2.5 to 5 ng/ml) to the cultures. One week later, the neurotoxic effect of LPS on DA neurons were assessed by both [H^3] DA uptake, which measures the functional capacity of high affinity uptake of DA cells and cell count of tyrosine hydroxylase-positive (TH-ir) cells. [H^3] […]

The test system of assay [2] is DA neurons. Nature of the assay: MPP+-induced reduction in DA uptake in neuron-enriched cultures. As to conditions: MMT 1, 3, or 10 μM pre-treatment. As to the method: Mesencephalic neuron-glia cultures were seeded (5×10^5/well) in 24 well plates precoated with poly D-lysine. Thirty-six hours postseeding, 5-10 μM cytosine β-D-arabinofuranoside was added to the culture. After 2 days, the cytosine β-D-arabinofuranoside was removed and replaced with fresh media. Neuron-enriched cultures are 98% pure, as indicated by ICC staining with OX-42 and GFAP antibodies. Neuron-enriched cultures were treated 7 days post-seeding. For microglia add-back cultures, the microglia were plated on top of the neuron-enriched culture at 6 days postseeding, resulting in the addition of either 10% (500 μL of 1×10^5) or 20% (500 μL of 2×10^5) microglia. […]
as §1
To determine whether the neuroprotective effect of MMT was dependent on the presence of glial cells, the effects of MMT on the neuron-enriched cultures were determined. […]

Assay [3] deals with DA neurons. In words: LPS-induced neurotoxicity in neuron/glia cultures from NADPH oxidase-deficient mice. The settings on record: NADPH oxidase-deficient (gp 91 lacking) neuron/glia cultures, preliminary data. The source says: Results from two sets of experiments support this conclusion. […] Thus, the failure for MMT to protect LPS-induced DA neurons toxicity in NADPH oxidase-deficient neuron/glia cultures implies a critical role of this enzyme in mediating the neuroprotective effect of MMT. The present invention determines the binding site of MMT in microglia.
Timed-pregnant (gestational day 14) adult female Fisher 344 rats were purchased from Charles River Laboratories (Raleigh, N.C., USA). Eight-wk-old (25-30 g) male and female B6.129S6-Cybb^tm1Din(PHOX^−/−) and C57BL/6J (PHOX^+/+) mice were purchased from Jackson Laboratories (Bar Harbor, Me., USA) and maintained in a strict pathogen free environment. The PHOX^−/− mice lack the functional catalytic subunit of the NADPH oxidase complex, gp91. NADPH oxidase is an inducible electron transport system in phagocytic cells that is responsible for the generation of the respiratory burst. PHOX^−/− mice are unable to generate extracellular superoxide in response to LPS or other immunological stimulus. Breeding of the mice was designed to achieve accurate timed-pregnancy±0.5 days. Because the PHOX^−/− mutation is maintained in the C57BL/6J background, the C57BL/6J (PHOX^+/+) mice were used as control animals. Housing, breeding and experimental use of the animals were performed in strict accordance with the National Institutes of Health guidelines. […]

The test system of assay [4] is HAPI. Nature of the assay: MTT cell viability of HAPI cells with LPS. As to conditions: MMT 10 uM, LPS 100 ng/ml, 48 hrs. As to the method: HAPI was seeded with 1*10^4/well in 96-well plate. Twenty-four hours later, it was treated with vehicle, MMT (10 uM), and LPS 100 ng/ml for 48 hrs. After adding MTT, cell viability was measured (FIG. 8A) and morphology (FIG. 8B) was examined by contrast microscope. Values are mean±SEM of three independent experiments. *p<0.05, compared with LPS.

With `CC12CC3CC(C)(C1)CC(N)(C3)C2.Cl` [MMT, 1-amino-3,5-dimethyladamantane hydrochloride], the “time of MMT addition after LPS still giving significant neuroprotection (DA uptake)” value in assay [1] (MMT 10 μM, LPS 2.5 ng/ml, post-treatment) is reported as “up to 120 min”. In addition, the “effect on LPS-induced decrease in DA uptake” value in assay [1] (neuron-enriched cultures) is recorded as “not in neuron-enriched cultures”; in assay [1] (pretreated 30 min with 1, 3, 10 μM MMT, neuron-glia cultures, dose-dependent), “significantly attenuated the LPS-induced decrease in DA uptake”. The “protection against MPP+-induced reduction in DA uptake” value in assay [2] is “failed to protect”. Besides, in assay [3], the “neuroprotective effect on LPS-induced neurotoxicity” value is listed as “failed to produce any neuroprotective effect”. Further, in assay [4], the “effect on apoptosis of activated microglia induced by LPS (MTT cell viability)” value is “lack of effect”.
